Read-outs that look alike come from different tables or passages of the source.
Experiments:
Type in all cases: biochemical
Pim2 kinase = Pim2 kinase (Homo sapiens, UniProt Q9P1W9); assay: Pim2 ATP depletion assay;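 also: Luciferase-based luminescent readout of ATP remaining after PIM2 phosphorylates a BAD peptide, final 5 nM enzyme, 4 µM ATP, 10 µM peptide, 2.5% DMSO, run to roughly half ATP consumption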
Pim1 kinase = Pim1 kinase (Homo sapiens, UniProt P11309); assay: Pim1 ATP depletion assay; details: Pim1 ATP depletion assay;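 also: Luciferase-luciferin luminescence readout of residual ATP after PIM1 transfers phosphate to a peptide substrate, 40 µM ATP added, reaction run to roughly half ATP consumption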
Pim1 kinase, sequence (P11309 whole entry): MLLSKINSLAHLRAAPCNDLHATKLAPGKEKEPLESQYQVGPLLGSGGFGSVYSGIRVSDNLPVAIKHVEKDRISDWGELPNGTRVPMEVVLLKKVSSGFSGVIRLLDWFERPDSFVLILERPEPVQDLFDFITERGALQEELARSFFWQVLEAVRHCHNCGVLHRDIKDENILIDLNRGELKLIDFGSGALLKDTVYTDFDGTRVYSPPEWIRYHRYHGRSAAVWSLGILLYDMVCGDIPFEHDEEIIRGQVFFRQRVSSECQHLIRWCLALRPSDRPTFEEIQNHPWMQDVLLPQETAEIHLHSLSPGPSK

Pim3 kinase = Pim3 kinase (Homo sapiens, UniProt Q86V86); assay: Pim3 ATP depletion assay

Pim2 kinase, sequence (Q9P1W9 whole entry): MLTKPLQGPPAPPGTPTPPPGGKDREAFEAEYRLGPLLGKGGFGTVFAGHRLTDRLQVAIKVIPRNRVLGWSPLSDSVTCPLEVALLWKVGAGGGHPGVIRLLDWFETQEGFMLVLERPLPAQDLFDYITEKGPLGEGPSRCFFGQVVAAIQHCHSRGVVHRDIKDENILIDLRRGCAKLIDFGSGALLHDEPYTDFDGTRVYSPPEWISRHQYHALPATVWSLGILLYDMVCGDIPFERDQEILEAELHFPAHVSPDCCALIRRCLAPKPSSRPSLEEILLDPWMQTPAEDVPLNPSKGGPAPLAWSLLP

SMILES | IC50 (Pim2 kinase; read-out: IC50 (μM) PIM2) | IC50 (Pim1 kinase; read-out: IC50 (μM) PIM1) | IC50 (Pim3 kinase; read-out: IC50 (μM) PIM3) | IC50 (Pim2 kinase; read-out: PIM2 IC50) | IC50 (Pim1 kinase; read-out: PIM1 IC50) | IC50 (Pim3 kinase; read-out: PIM3 IC50)
Nc1ccc(-c2ccc(F)nc2N)nc1C(=O)Nc1cnccc1N1CCC[C@H](N)C1 [Example 408, 5,2′-diamino-6′-fluoro-[2,3′]bi-pyridinyl-6-carboxylic acid ((S)-3-amino-3,4,5,6-tetrahydro-2H-[1,4′]bipyridinyl-3′-yl)-amide] | < 1 µM | < 1 µM | < 1 µM |  |  | 
CC(C)NC(=O)c1ccc(F)c(-c2ccc(N)c(C(=O)Nc3cnccc3N3C[C@@H](N)C[C@@H](O)C3)n2)c1 [Example 677, 3-Amino-6-(2-fluoro-5-isopropylcarbamoyl-phenyl)-pyridine-2-carboxylic acid (3-amino-5-hydroxy-3,4,5,6-tetra-hydro-2H-[1,4′]bipyridinyl-3′-yl)-amide] |  |  |  | < 1 µM | < 1 µM | < 1 µM
CC(C)CCc1ccc(F)c(-c2ccc(N)c(C(=O)Nc3cnccc3N3CCC[C@H](N)C3)n2)c1 [Example 755, (S)-3-amino-N-(4-(3-aminopiperidin-1-yl)pyridin-3-yl)-6-(2-fluoro-5-isopentylphenyl)picolinamide] |  |  |  | < 1 µM | < 1 µM | < 1 µM
Nc1cc(-c2ccncc2NC(=O)c2cccc(-c3ccccc3F)n2)nc(C(F)(F)F)n1 [Example 529, 6-(2-Fluoro-phenyl)-pyridine-2-carboxylic acid [4-(6-amino-2-trifluoromethyl-pyrimidin-4-yl)-pyridin-3-yl]-amide] | < 1 µM | < 1 µM | < 1 µM |  |  | 
Nc1ccc(-c2ccc(Cl)s2)nc1C(=O)Nc1cnccc1N1CCC[C@H](N)C1 [Example 450, 3-Amino-6-(5-chloro-thiophen-2-yl)-pyridine-2-carboxylic acid (3-amino-3,4,5,6-tetrahydro-2H-[1,4′]bipyridinyl-3′-yl)-amide] | < 1 µM | < 1 µM | < 1 µM |  |  | 
COc1cc(-c2ccncc2NC(=O)c2nc(-c3cc(C(=O)NC(C)C)ccc3F)ccc2N)nc(N)n1 [Example 267, 3-Amino-6-(2-fluoro-5-isopropylcarbamoyl-phenyl)-pyridine-2-carboxylic acid [4-(2-amino-6-methoxy-pyrimidin-4-yl)-pyridin-3-yl]-amide] | < 1 µM | < 1 µM | < 1 µM |  |  | 
Nc1ccc(-c2ccccc2F)nc1C(=O)Nc1cnccc1-c1ccncc1F [Example 616, 3-amino-N-(3′-fluoro-4,4′-bipyridin-3-yl)-6-(2-fluorophenyl)pyridine-2-carboxamide] |  |  |  | < 1 µM | < 1 µM | < 1 µM
CC(C)NC(=O)c1ccc(F)c(-c2ccc(N)c(C(=O)Nc3cnccc3N3CC[C@@H](O)[C@H](N)C3)n2)c1F [Example 732, 3-Amino-6-(2,6-difluoro-3-isopropylcarbamoyl-phenyl)-pyridine-2-carboxylic acid (3-amino-4-hydroxy-3,4,5,6-tetra-hydro-2H-[1,4′]bipyridinyl-3′-yl)-amide] |  |  |  | < 1 µM | < 1 µM | < 1 µM
Nc1ccc(-c2ccccc2F)nc1C(=O)Nc1cnccc1-c1cncc(F)c1 [Example 601, 3-amino-N-(5-fluoro-3,4′-bipyridin-3′-yl)-6-(2-fluorophenyl)pyridine-2-carboxamide] |  |  |  | < 1 µM | < 1 µM | < 1 µM
CC(C)NC(=O)c1ccc(F)c(-c2cccc(C(=O)Nc3cnccc3N3CCC[C@H](N)C3)n2)c1 [Example 453, 6-(2-Fluoro-5-isopropylcarbamoyl-phenyl)-pyridine-2-carboxylic acid (3-amino-3,4,5,6-tetrahydro-2H-[1,4′]bipyridinyl-3′-yl)-amide] | < 1 µM | < 1 µM | < 1 µM |  |  | 
Cc1cc(-c2ccncc2NC(=O)c2nc(-c3ncccc3F)ccc2N)cc(N)n1 [Example 746, 5-Amino-3′-fluoro-[2,2′]bi-pyridinyl-6-carboxylic acid (2′-amino-6′-methyl-[4,4′]bi-pyridinyl-3-yl)-amide] |  |  |  | < 1 µM | < 1 µM | < 1 µM
Nc1cc(-c2ccncc2NC(=O)c2nc(-c3ccccc3F)ccc2N)ccn1 [Example 605, 3-amino-N-(2′-amino-4,4′-bipyridin-3-yl)-6-(2-fluorophenyl)pyridine-2-carboxamide] |  |  |  | < 1 µM | < 1 µM | < 1 µM
CC(C)NC(=O)c1ccc(F)c(-c2ccc(F)c(C(=O)Nc3cnccc3N3CCC[C@H](N)C3)n2)c1 [Example 569, 3-Fluoro-6-(2-fluoro-5-isopropylcarbamoyl-phenyl)-pyridine-2-carboxylic acid (3-amino-3,4,5,6-tetrahydro-2H-[1,4′]bipyridinyl-3′-yl)-amide] |  |  |  | < 1 µM | < 1 µM | < 1 µM
Nc1ccc(-c2cccc(Cl)n2)nc1C(=O)Nc1cnccc1N1CCC[C@H](N)C1 [Example 710, 5-Amino-6′-chloro-[2,2′]bi-pyridinyl-6-carboxylic acid (3-amino-3,4,5,6-tetrahydro-2H-[1,4′]bipyridinyl-3′-yl)-amide] |  |  |  | < 1 µM | < 1 µM | < 1 µM
COc1cncc(-c2ccc(N)c(C(=O)Nc3cnccc3N3CCC[C@H](N)C3)n2)n1 [Example 722, 3-Amino-6-(6-methoxy-pyrazin-2-yl)-pyridine-2-carboxylic acid (3-amino-3,4,5,6-tetrahydro-2H-[1,4′]bipyridinyl-3′-yl)-amide] |  |  |  | < 1 µM | < 1 µM | < 1 µM
CCCOc1cncc(-c2nc(C(=O)Nc3cnccc3N3CCC[C@H](N)C3)c(N)cc2F)n1 [Example 738, 3-Amino-5-fluoro-6-(6-propoxy-pyrazin-2-yl)-pyridine-2-carboxylic acid (3-amino-3,4,5,6-tetrahydro-2H-[1,4′]bi-pyridinyl-3′-yl)-amide] |  |  |  | < 1 µM | < 1 µM | < 1 µM
CCCOc1ccc(F)c(-c2ccc(N)c(C(=O)Nc3cnccc3N3C[C@@H](N)C[C@H](O)C3)n2)c1 [Example 581, 3-Amino-6-(2-fluoro-5-propoxy-phenyl)-pyridine-2-carboxylic acid (3-amino-5-hydroxy-3,4,5,6-tetrahydro-2H-[1,4′]bipyridinyl-3′-yl)-amide] |  |  |  | < 1 µM | < 1 µM | < 1 µM
COc1ccc(F)cc1-c1nc(C(=O)Nc2cnccc2N2CCC[C@H](N)C2)c(N)cc1F [Example 501, 3-Amino-5-fluoro-6-(5-fluoro-2-methoxy-phenyl)-pyridine-2-carboxylic acid (3-amino-3,4,5,6-tetrahydro-2H-[1,4′]bipyridinyl-3′-yl)-amide] | < 1 µM | < 1 µM | < 1 µM |  |  | 
Cc1csc(-c2ccc(N)c(C(=O)Nc3cnccc3-c3cc(N)nc(C)n3)n2)c1 [Example 556, 3-Amino-6-(4-methyl-thiophen-2-yl)-pyridine-2-carboxylic acid [4-(6-amino-2-methyl-pyrimidin-4-yl)-pyridin-3-yl]-amide] |  |  |  | < 1 µM | < 1 µM | < 1 µM
CN(C)C(=O)c1ccc(F)c(-c2ccc(N)c(C(=O)Nc3cnccc3N3CCCC(O)C3)n2)c1 (stereo not drawn) [Example 657, 3-Amino-6-(5-dimethyl-carbamoyl-2-fluoro-phenyl)-pyridine-2-carboxylic acid (3-hydroxy-3,4,5,6-tetrahydro-2H-[1,4′]bipyridinyl-3′-yl)-amide] |  |  |  | < 1 µM | < 1 µM | < 1 µM
Nc1cnc(-c2ccccc2)nc1C(=O)Nc1cnccc1N1CCCC(O)(C(F)(F)F)C1 (stereo not drawn) [Example 262, 5-Amino-2-phenyl-pyrimidine-4-carboxylic acid (3-hydroxy-3-trifluoromethyl-3,4,5,6-tetra-hydro-2H-[1,4′]bipyridinyl-3′-yl)-amide] | 1 to 10 µM | < 1 µM | < 1 µM |  |  | 
Nc1ccc(-c2ccccc2F)nc1C(=O)Nc1cnccc1N1CCC(F)(F)C(N)C1 (stereo not drawn) [Example 254, 3-Amino-6-(2-fluoro-phenyl)-pyridine-2-carboxylic acid (3-amino-4,4-difluoro-3,4,5,6-tetra-hydro-2H-[1,4′]bipyridinyl-3′-yl)-amide] | < 1 µM | < 1 µM | < 1 µM |  |  | 
CC(C)/C=C\c1ccc(F)c(-c2ccc(N)c(C(=O)Nc3cnccc3N3CCC[C@H](N)C3)n2)c1 [Example 687, 3-Amino-6-[2-fluoro-5-(3-methyl-but-1-enyl)-phenyl]-pyridine-2-carboxylic acid (3-amino-3,4,5,6-tetrahydro-2H-[1,4′]bipyridinyl-3′-yl)-amide] |  |  |  | < 1 µM | < 1 µM | < 1 µM
Nc1ccc(-c2c(F)cccc2F)nc1C(=O)Nc1cnccc1N1C[C@@H](N)C[C@H](OC(=O)c2ccccc2)C1 [Example 295, Benzoic acid 5-amino-3′-{[3-amino-6-(2,6-difluoro-phenyl)-pyridine-2-carbonyl]-amino}-3,4,5,6-tetrahydro-2H-[1,4′]bi-pyridinyl-3-yl ester] | 1 to 10 µM | < 1 µM | < 1 µM |  |  | 
COC(=O)c1nc(-c2ccc(N)c(C(=O)Nc3cnccc3N3CCC[C@H](N)C3)n2)c(F)cc1N [Example 504, 5,5′-Diamino-6′-(3-amino-3,4,5,6-tetrahydro-2H-[1,4′]bi-pyridinyl-3′-ylcarbamoyl)-3-fluoro-[2,2′]bipyridinyl-6-carboxylic acid methyl ester] | < 1 µM | < 1 µM | < 1 µM |  |  | 
Nc1ccc(-c2ncc(Cl)cc2Cl)nc1C(=O)Nc1cnccc1N1CCC[C@H](N)C1 [Example 700, 5-Amino-3′,5′-dichloro-[2,2′]bi-pyridinyl-6-carboxylic acid (3-amino-3,4,5,6-tetrahydro-2H-[1,4′]bipyridinyl-3′-yl)-amide] |  |  |  | < 1 µM | < 1 µM | < 1 µM

Source: US20140249135A1, “PIM KINASE INHIBITORS AND METHODS OF THEIR USE” (NOVARTIS AG, priority 2007, published 2014)
